{"source": "patent US10925890B2", "about": "“Use of dextran sulfate” (TX MEDIC AB, priority 2014, dated 2021)", "key": {"[1]": {"experiment": "Body weight, tMCAO rat-stroke study", "assay_type": "in vivo", "conditions": "30 mg/kg 3 times a week or 15 mg/kg daily s.c., 28 days", "text": "In total 46 male SD rats having an average body weight of 342 g at study initiation (Day 0) were obtained from Harlan Laboratories, Israel. The minimal and maximal weight recorded in each group was within a range of ±20% of the group mean weight. Animals were handled according to guidelines of the National Institute of Health (NIH) and the Association for Assessment and Accreditation of Laboratory Animal Care (AAALAC). Animals were housed in polyethylene cages (5/cage) measuring 35×30×15 cm, with stainless steel top grill facilitating pelleted food and drinking water in plastic bottle; bedding: steam sterilized clean paddy husk (Harlan, Sani-chip cat #:2018SC+F) was used and bedding material was changed along with the cage at least twice a week. Animals were fed ad libitum a commercial rodent diet (Teklad Certified Global 18% Protein Diet cat #: 106S8216). Animals had free access to autoclaved and acidified drinking water (pH between 2.5 and 3.5) obtained from the municipality supply. Animals were housed under standard laboratory conditions, air-conditioned and filtered (HEPA F6/6) with adequate fresh air supply (Minimum 15 air changes/hour). Animals were kept in a climate-controlled environment. Temperatures range was 20-24° C. and RH range was 30-70% with 12 hours light and 12 hours dark cycle. […]"}, "tMCAO rat-stroke model": {"system": "tMCAO rat-stroke model", "experiment": "Neurological test score (Neuroscore, mNRS), tMCAO rat", "assay_type": "in vivo", "conditions": "groups 2M (30 mg/kg 3 times per week) and 3M (daily); day 7 up to day 28", "description": "Transient middle cerebral artery occlusion was performed according to the method previously described in Stroke 29, 2162-2170 (1998). The right common carotid artery (CCA) was exposed through a midline neck incision and carefully dissected free from surrounding nerves and fascia—from its bifurcation to the base of the skull. The occipital artery branches of the external carotid artery (ECA) were then isolated, and these branches were dissected and coagulated. The ECA was dissected further distally and coagulated along with the terminal lingual and maxillary artery branches, which was then divided. The internal carotid artery (ICA) was isolated and carefully separated from the adjacent vagus nerve, and the pterygopalatine artery was ligated close to its origin with a 5-0 nylon suture (SMI, Belgium). Next a 4-0 silk suture was tied loosely around the mobilized ECA stump, and a 4 cm length of 4-0 monofilament nylon suture (the tip of the suture was blunted by using a flame, and the suture was coated with polylysine, prior to insertion) was inserted through the proximal ECA into the ICA and thence into the circle of Willis, effectively occluding the MCA. The surgical wound was closed and the animals were returned to their cages to recover from anesthesia. […]"}, "[2]": {"system": "rat model of myocardial infarction", "experiment": "Infarct size (Masson's trichrome), rat myocardial infarction model", "assay_type": "in vivo", "conditions": "35 days after MI induction", "description": "The myocardial infarction model in rat involved ligations of the left coronary artery permanently with an intramural stitch. The surgery caused obstruction of the blood flow and subsequently to severe ischemic damage and cardiac walls infarct.\nOn the day of surgery the animals were anesthetized with a combination of 90 mg/kg ketamine and 10 mg/kg xylazine. In order to induce MI, under anesthesia and analgesia, the rat chest was opened by left thoracotomy, the pericardium was removed and the proximal left coronary artery was permanently occluyded with an intramural stitch (Circulation 117, 1388-1396 (2008)). Two hours post surgery, each animal in all treated groups were injected s.c. with dextran sulfate or saline vehicle according to Table 11.\nOn day 36 after MI induction, the rats were sacrificed by CO2 inhalation and the hearts were harvested and fixed in 4% buffered Formalin solution. […]\nFor the purpose of MI size identification, Masson's Trichrome Staining was used. […] The sections were visualized in a computer-imaging system and infarct size was marked and calculated using the ImageJ program. Infarct size was expressed as percentage of infarct area (unstained) versus the total left ventricle area. For each animal, five serial sections including one containing the ligature were analyzed and the mean value of all sections for each heart was calculated. […]"}, "[3]": {"system": "Rat Hind-Limb Ischemia Model", "experiment": "Blood flow by non-contact LASER Doppler, rat hind-limb ischemia", "assay_type": "in vivo", "conditions": "for Mean change in blood flow from Day 0 to Day 28: vehicle 14.8", "description": "(§1) The femoral artery and vein were ligated twice with 4-0 silk thread and transected between the ligatures. The wound was closed with 3-0 silk thread and the rats were allowed to recover.\n(§2) Animals in group 4M and 5M were injected s.c. once on Day 8, see Table 12.\nBlood flows in legs from both sides were measured with a non-contact LASER Doppler before surgery on Day −1 and on Days: 1, 7, 14, 21 and 28 post operation. Blood flow measurements were expressed as the ratio of the flow in the ischemic limb to that in the normal limb."}, "[4]": {"system": "Rat Hind-Limb Ischemia Model", "experiment": "Ischemic severity (necrosis grades), rat hind-limb ischemia", "assay_type": "in vivo", "conditions": "all groups incl. vehicle; Day 7 up to Day 28", "description": "as §1, §2"}, "[5]": {"system": "Rat Hind-Limb Ischemia Model", "experiment": "In vivo assessment of limb function, rat hind-limb ischemia", "conditions": "for Incidence of limb function score 0 / Incidence of limb function score 1 / Incidence of limb function score 2 / Incidence of limb function score 3: Day 28", "description": "as §1, §2\nSemi-quantitative assessment of impaired use of the ischemic limb was performed once a week post-surgery using the scale presented in Table 7. Scoring was performed by personnel blinded to the treatment."}, "[6]": {"conditions": "group 4M, 30 mg/kg s.c. administered once"}, "[7]": {"conditions": "group 5M, 3 mg/kg s.c. administered once"}, "[8]": {"conditions": "groups 2M, 3M, 4M and 5M vs 1M, Day 14 through Day 28"}, "[9]": {"conditions": "group 2M, 30 mg/kg s.c. 3 times a week"}, "[10]": {"conditions": "group 3M, 30 mg/kg (as printed in Table 12) s.c. 3 times a week"}}, "note": "“Also recorded” adds a separate entry of the source."}
{"substance": "Dextran sulfate", "values": [{"measurement": "Body weight, differences among treatment groups", "setting": "[1]", "result": "no statistically significant differences"}, {"measurement": "Neuroscore (0-18) compared to vehicle treated control", "setting": "tMCAO rat-stroke model", "result": "Statistically significant differences"}, {"measurement": "Infarct size / infarct volume, treatment group 2M vs control group 1M", "setting": "[2]; 15 mg/kg s.c. 3 times a week for 3 weeks", "result": "significant difference; also recorded: significantly decreased the infarct volume"}, {"measurement": "Average infarct size compared to untreated control group", "setting": "[2]; all treatment groups (15 or 3 mg/kg s.c.)", "result": "smaller average infarct size"}, {"measurement": "Mean change in blood flow from Day 0 to Day 28", "setting": "[3]; group 2M, 30 mg/kg s.c. 3 times a week starting on Day 8", "result": 47.7, "unit": "%"}, {"measurement": "Mean change in blood flow from Day 0 to Day 28", "setting": "[3]; group 3M, 30 mg/kg (as printed in Table 12) s.c. 3 times a week starting on Day 8", "result": 39.1, "unit": "%"}, {"measurement": "Mean change in blood flow from Day 0 to Day 28", "setting": "[3]; [6]", "result": 44.0, "unit": "%"}, {"measurement": "Mean change in blood flow from Day 0 to Day 28", "setting": "[3]; [7]", "result": 41.0, "unit": "%"}, {"measurement": "Ratio of blood flow HLI-injured versus non-injured leg, treated groups vs control", "setting": "[3]; [8]", "result": "statistically significant differences"}, {"measurement": "Toe necrosis or foot amputation", "setting": "[4]", "result": "no toe necrosis or foot amputation was found"}, {"measurement": "Incidence of limb function score 0", "setting": "[5]; [9]", "result": 100, "unit": "%"}, {"measurement": "Incidence of limb function score 1", "setting": "[5]; [9]", "result": 0, "unit": "%"}, {"measurement": "Incidence of limb function score 2", "setting": "[5]; [9]", "result": 0, "unit": "%"}, {"measurement": "Incidence of limb function score 3", "setting": "[5]; [9]", "result": 0, "unit": "%"}, {"measurement": "Incidence of limb function score 0", "setting": "[5]; [10]", "result": 88, "unit": "%"}, {"measurement": "Incidence of limb function score 1", "setting": "[5]; [10]", "result": 12, "unit": "%"}, {"measurement": "Incidence of limb function score 2", "setting": "[5]; [10]", "result": 0, "unit": "%"}, {"measurement": "Incidence of limb function score 3", "setting": "[5]; [10]", "result": 0, "unit": "%"}, {"measurement": "Incidence of limb function score 0", "setting": "[5]; [6]", "result": 100, "unit": "%"}, {"measurement": "Incidence of limb function score 1", "setting": "[5]; [6]", "result": 0, "unit": "%"}, {"measurement": "Incidence of limb function score 2", "setting": "[5]; [6]", "result": 0, "unit": "%"}, {"measurement": "Incidence of limb function score 3", "setting": "[5]; [6]", "result": 0, "unit": "%"}, {"measurement": "Incidence of limb function score 0", "setting": "[5]; [7]", "result": 94, "unit": "%"}, {"measurement": "Incidence of limb function score 1", "setting": "[5]; [7]", "result": 6, "unit": "%"}, {"measurement": "Incidence of limb function score 2", "setting": "[5]; [7]", "result": 0, "unit": "%"}, {"measurement": "Incidence of limb function score 3", "setting": "[5]; [7]", "result": 0, "unit": "%"}, {"measurement": "Limb function score, treated groups vs control", "setting": "[5]; [8]", "result": "statistically significant differences"}]}
